From patent publication US11510957B2, “Method for treating or alleviating autoimmune-related diseases” (priority 2016, dated 2022)

Key:
[1] = test system: IMQ-induced psoriasis-like dermatitis in BALB/c mice; test: Imiquimod (IMQ)-induced psoriasis-like dermatitis mouse model, skin irritation score; format: in vivo; conditions: 100 mg/kg; 6 days; FIG. 5D
Method: The 8 weeks BALB/c male mice were purchased from BioLASCO Taiwan Co., Ltd. After acclimation and quarantine, the batch of mice were approximately 9-10 weeks of age at the time of performing the experiment of IMQ-induced psoriasis-like dermatitis. The experimental animals were bred in the environment: 12 hours light and 12 hours dark, room temperature of 23±2° C., and relative humidity of 40-70%. During feeding, animals were free to obtain adequate food and drinking water. In addition, during the quarantine and testing period, the animals were observed and recorded by the veterinarian and the experimental staff of ITRI to ensure health of these experimental animals.
Then, the hair on the back of each mouse was shaved, and the shaving area was about 4*2 cm^2. Since day 0, 3.125 mg imiquimod (IMQ) was administered by smearing to the skin of shaved area of each mouse daily for consecutive 6 days. […]
The above-mentioned degree of skin irritation is based on Psoriasis Area and Severity Index (PAST), in which erythema, thickening, and scaling of skin were assessed and analyzed for judging the scale. […]
The mean value and standard error of mean (S.E.M.) of each group were calculated by accumulating the index observed in the same mouse, and t-test statistics was used to distinguish the differences between the groups.

EAE in C57BL/6 mice = test: Experimental autoimmune encephalomyelitis (EAE) mouse model, clinical EAE score; format: in vivo; conditions: 30 mg/kg and 100 mg/kg; 14 days
Method: The experimental animals, female C57BL/6 mice, aged about 8 weeks, were purchased from National Laboratory Animal Center (Tainan). After acclimation and quarantine, the mice were approximately 10-12 weeks of age at the time of performing the EAE experiments. The experimental animals were bred in the environment: 12 hours light and 12 hours dark, room temperature of 23±2° C., and relative humidity of 40-70%. During feeding, animals were free to obtain adequate food and drinking water, but after the onset of EAE, the soaked soft feed and agar gel jelly were especially given in the bottom of the feeding cage, so that the onset animals were easier to feed and drink. In addition, during the quarantine and testing period, the animals were observed and recorded by the veterinarian and the experimental staff of ITRI to ensure health of these experimental animals.
The foregoing C57BL/6 mice were administered subcutaneously with 200 μl emulsion including 200 μg MOG35-55 peptide and 400 μg Mycobacterium tuberculosis H37Ra, followed by intraperitoneal injection of 500 ng pertussis toxin for induction of EAE. From the 7th day after induction, the EAE clinical symptoms were recorded daily according to the recognized Ataxia score (grading of nervous system disorder) and EAE score as the scoring criteria (description of Ataxia score and EAE score are as follows). […]

[2] = test system: TNF-α secretion in LPS-induced acute inflammatory mice; test: TNF-α secretion in LPS-induced acute inflammatory BALB/c mouse model, plasma ELISA; format: in vivo; conditions: FIG. 5B
Method: The 6-8 weeks BALB/c male mice were purchased from BioLASCO Taiwan Co., Ltd. In addition to make the feeding condition meeting with national experimental animal guidelines, the batch of mice were marked, sub-cage and weighing soon after acquisition. Then, these mice were placed to the quarantine room of general area for a week of quarantine work. During the quarantine period, observation of mobility and environmental adaptability was performed, and after assessment to be normal, these mice were transferred into the feeding area for experimental implementation. […]
Then the mice were fasted for 2 to 4 hours but regular drinking water was still supplied. […] After administration, the clinical symptoms of the mice were observed and recorded. […] After administration, the clinical symptoms of the mice were observed and recorded.
After 1.5 hours LPS stimulation, the mice were euthanized by excessive CO2 and the whole blood was collected by cardiac puncture blood sampling. Next, the plasma was collected after centrifugation at 6000 rpm and 4° C. for 10 minutes and then TNF-α secretion were analyzed.
The TNF-α secretion in plasma was analyzed according to the following procedure shown in Duoset® ELISA kit. […] Finally, 50 μl of Stop Solution (1N HCl) was added to each well to stop the color reaction, and the absorbance of OD450 nm was measured.

[3] = test system: IL-17 secretion in EL4 murine lymphoma cells; test: Anti-IL-17 secretion in EL4 (murine lymphoma) cells induced with PMA and Ionomycin, ELISA; format: cell-based; conditions: PMA 10 ng/ml + Ionomycin 5 ng/ml, 18 hours
Method: EL4 cell line is murine lymphoma cell purchased from Bioresource Collection and Research Center (referred to as BCRC) and cultured in RPMI 1640 medium which contains 10% Fetal Bovine Serum (referred to as FBS), 1.5 g Sodium bicarbonate, 1 mM Sodium pyruvate, lx non-essential amino acids (referred to as NEAA), and 0.5 mM 2-Mecaptoethanol (referred to as 2-ME).
EL4 lymphoma cells were seeded into 96-well plate by 1×10^5 cells per well and 10 μl of the extract of A. tsao-ko HE-06 was added to each well and incubated at 37° C. in 5% CO2 cell incubator for 1 hour. Then, Phorbol-12-myristate-13-acetate (referred to as PMA or TPA) and Ionomycin were added to be the stimulants that induce activation of lymphoma cells, in which the final concentration of PMA was 10 ng/ml and the final concentration of Ionomycin was 5 ng/ml, and additional 18 hours incubation was executed. In the above test, the group of adding both PMA (final concentration of 10 ng/ml) and Ionomycin (final concentration of 5 ng/ml) was considered as the control group.
Thereafter, the cell-containing 96-well plate was centrifuged at 1200 rpm for 5 minutes and the supernatant was collected and transferred to the new 96-well plate. […] 150 μl DMSO was then added to dissolve the […] and the absorbance of 570 nm was measured to assess the cell viability. […]

Which “clinical symptoms of IMQ-induced psoriasis-like dermatitis” value [1] does the source give for `O=CC1=CC[C@H](O)[C@@H]2CCC[C@H]12` [Tsaokoin (TK), tsaokoin] here?
The value was “significantly alleviate the clinical symptoms of IMQ-induced psoriasis-like dermatitis”.

And the “effect on progress of EAE (EAE score)” value (EAE in C57BL/6 mice)?
Its value is “slow down the progress of EAE, and present a dose-dependent effect”.

What about the “inhibition of TNF-α secretion (in words)” value [2] of the same compound?
Its value is “significantly inhibit the secretion of TNF-α”.

What about the “IC50, concentration causing 50% IL-17 secretion inhibition, EL4” value [3] of the same compound?
The value was 12.1 µg/mL.
